Each structure is given as a SMILES string. Values after ≈ are worked out from the molar mass of the structure shown. Values joined by “and” are separate entries in the source; they are usually repeats but may differ in a detail not shown here. Equal values may be shown once.

Among the test systems are Fusobacterium nucleatum; Cutibacterium acnes; Acinetobacter baumannii; Clostridium septicum; Bacteroides fragilis; Escherichia coli; Staphylococcus simulans; Pseudomonas aeruginosa; Bacillus megaterium Bm11; Candida albicans; Klebsiella pneumoniae; Citrobacter freundii; Escherichia coli ML-35; Enterococcus faecium; Micrococcus luteus; Staphylococcus aureus.
What all share (experiment): ≥ marks a high value that may be exact or a test limit, other limits are often not marked, values filed in µg/mL are converted to µM
Assay [1] deals with Staphylococcus aureus T58/7.
Assay [2] concerns Prevotella melaninogenica.
Assay [3] concerns Enterobacter cloacae HNTCC 53001.
The subject of assay [4] is Pseudomonas aeruginosa ATCC 27853.
Assay [5] relates to Bacteroides fragilis ATCC 25285.
In assay [6] the test system is Peptostreptococcus anaerobius.
In assay [7] the test system is Staphylococcus epidermidis CGMCC 1.4260.
For assay [8], the system named is Staphylococcus epidermidis RP62A.
Assay [9] relates to Staphylococcus aureus T7/5.
Assay [10] deals with Escherichia coli CGMCC 1.8732.
The test system of assay [11] is Pseudomonas aeruginosa CGMCC 1.2421.
The subject of assay [12] is Staphylococcus aureus T27/9.
For assay [13], the system named is Cutibacterium acnes ATCC 11828.
In assay [14] the test system is Fusobacterium varium ATCC 27725.
The test system of assay [15] is Clostridium tertium ATCC 19465.
For assay [16], the system named is Batrachochytrium dendrobatidis.
Assay [17] concerns Clostridium perfringens ATCC 10543.
The subject of assay [18] is Klebsiella pneumoniae KK3 9904.
Assay [19] deals with Peptoniphilus asaccharolyticus ATCC 29743.
For assay [20], the system named is Candida albicans ATCC 90028.
Assay [21] deals with Salmonella enterica subsp. enterica serovar Typhimurium LT2.
The test system of assay [22] is Proteus mirabilis ATCC 25933.
The subject of assay [23] is Enterococcus faecalis ATCC 29212.
Assay [24] deals with Klebsiella pneumoniae CGMCC 1.1736.
Assay [25] relates to Staphylococcus aureus CGMCC 1.8721.
Assay [26] relates to Escherichia coli ATCC 25922.
Assay [27] concerns Bacillus subtilis CGMCC 1.3376.
The subject of assay [28] is Staphylococcus aureus NCTC 8325.
The test system of assay [29] is Escherichia coli ATCC 25726.
The test system of assay [30] is Escherichia coli CIB 84492.
Assay [31] relates to Candida albicans CIB 45437.
Assay [32] has as its system Staphylococcus aureus ATCC 25923.
The test system of assay [33] is Staphylococcus aureus CIB 85462.
Assay [34] relates to Stenotrophomonas maltophilia.
In assay [35] the test system is Staphylococcus aureus 710A.
The subject of assay [36] is Staphylococcus haemolyticus.
Assay [37] concerns Staphylococcus aureus LT1338.
Assay [38] concerns Salmonella enterica subsp. enterica serovar Typhimurium ATCC 14028.
For assay [39], the system named is Staphylococcus aureus LT1334.
The subject of assay [40] is Staphylococcus epidermidis LT1324.

What is called MIC is the lowest concentration found to suppress growth. Low values mean inhibition by little substance, high ones a need for much substance. For `CC[C@H](C)[C@H](NC(=O)[C@H](C)N)C(=O)NCC(=O)N[C@@H](CO)C(=O)N[C@H](C(=O)N[C@@H](CC(C)C)C(=O)NCC(=O)N[C@@H](C)C(=O)N[C@@H](CC(C)C)C(=O)N[C@@H](C)C(=O)N[C@@H](CCCCN)C(=O)NCC(=O)N[C@@H](CC(C)C)C(=O)N1CCC[C@H]1C(=O)N[C@H](C(=O)N[C@@H](CC(C)C)C(=O)N[C@H](C(=O)N[C@@H](CO)C(=O)N[C@@H](Cc1c[nH]c2ccccc12)C(=O)N[C@H](C(=O)N[C@@H](CCCCN)C(=O)N[C@@H](CC(N)=O)C(=O)N[C@@H](CCCN=C(N)N)C(N)=O)[C@@H](C)CC)[C@@H](C)CC)[C@@H](C)O)[C@@H](C)CC` [AIGSILGALAKGLPTLISWIKNR], the minimum inhibitory concentration (MIC) in [1] is 20 µM (≈ 47.8 µg/mL); against Fusobacterium nucleatum it was not below 50 µM; in assay [2] it was 3 µM (≈ 7.18 µg/mL); in assay [3], 12.5 µM (≈ 29.9 µg/mL); in assay [4], 25 µM (≈ 59.8 µg/mL); in assay [5], not below 50 µM. For the same compound, the MIC in assay [6] was 25 µM (≈ 59.8 µg/mL); in assay [7] it was 3.13 µM (≈ 7.49 µg/mL); against Cutibacterium acnes it was 25 µM (≈ 59.8 µg/mL); in assay [8] it was 3 µM (≈ 7.18 µg/mL); in assay [9] it was 2.5 µM (≈ 5.98 µg/mL); in assay [10], 25 µM (≈ 59.8 µg/mL). The minimum inhibitory concentration (MIC) was 12.5 µM (≈ 29.9 µg/mL) in [11]; 12.5 µM (≈ 29.9 µg/mL) in the assay on Acinetobacter baumannii; 5 µM (≈ 12 µg/mL) in [12]; 12.5 µM (≈ 29.9 µg/mL) in assay [13]; not below 50 µM in assay [14]; 12.5 µM (≈ 29.9 µg/mL) in assay [15]. The MIC in assay [16] is 25 µM (≈ 59.8 µg/mL); in assay [17] it was not below 50 µM; in the assay on Clostridium septicum, 12.5 µM (≈ 29.9 µg/mL); in assay [18], not below 50 µM; in assay [19], not below 50 µM; in assay [20], 19 µM and 12.5 µM. Further, the MIC in [21] is not below 50 µM; with Bacteroides fragilis, not below 50 µM; in assay [22] it was not below 100 µM; in [23] it was 6 µM (≈ 14.4 µg/mL); in assay [24], 12.5 µM (≈ 29.9 µg/mL); in assay [25] it was 6.25 µM (≈ 14.9 µg/mL). The MIC was 20 µM and 12.5 µM in assay [26]; 3.13 µM (≈ 7.49 µg/mL) in assay [27]; 3.5 µM and 6 µM in assay [28].

Consider `CC[C@H](C)[C@@H]1NC(=O)[C@H](C)NC(=O)[C@@H](NC(=O)[C@H](Cc2ccccc2)NC(=O)[C@@H](NC(=O)[C@@H](NC(=O)[C@@H]2CCCN2C(=O)[C@@H](NC(=O)[C@@H](NC(=O)[C@H](CCC(N)=O)NC(=O)[C@H](C)NC(=O)[C@H](C)NC(=O)[C@@H](NC(=O)[C@H](CCCN=C(N)N)NC(=O)[C@H](CC(C)C)NC(=O)[C@@H](NC(=O)[C@H](C)NC(=O)[C@@H]2CCCN2C(=O)[C@H](CC(C)C)NC(=O)[C@@H](N)Cc2ccccc2)C(C)C)C(C)C)C(C)C)C(C)C)[C@@H](C)O)C(C)C)CSSC[C@@H](C(=O)O)NC(=O)[C@H](CCCCN)NC(=O)[C@H](CCCCN)NC(=O)[C@H](CO)NC1=O` [FLPAVLRVAAQVVPTVFCAISKKC], for which the MIC was not below 48.8 µM in assay [29]; 25 µM (≈ 64 µg/mL) in assay [30]; not below 50 µM in assay [31]; 3.12 µM (≈ 7.99 µg/mL) in assay [32]; 50 µM (≈ 128 µg/mL) in [26]; 12.5 µM (≈ 32 µg/mL) in assay [33].

In the case of `CC[C@H](C)[C@H](NC(=O)[C@H](CCCN=C(N)N)NC(=O)[C@H](C)NC(=O)[C@H](CC(C)C)NC(=O)[C@H](CCCN=C(N)N)NC(=O)CNC(=O)[C@H](Cc1ccccc1)NC(=O)[C@@H](NC(=O)[C@H](CO)NC(=O)CNC(=O)[C@H](CC(C)C)NC(=O)CN)C(C)C)C(=O)N[C@@H](CC(C)C)C(=O)NCC(=O)N[C@@H](CCCN=C(N)N)C(=O)N[C@H](C(=O)N[C@H](C(=O)N1CCC[C@H]1C(=O)N[C@@H](CCCCN)C(=O)N[C@H](C(N)=O)C(C)C)[C@@H](C)CC)C(C)C` [GLGSVFGRLARILGRVIPKV], the MIC in the assay with Escherichia coli stood at 2.83 µM (≈ 5.96 µg/mL); in [34], 2 µM (≈ 4.22 µg/mL); in assay [35], 4 µM (≈ 8.43 µg/mL); against Staphylococcus simulans, 2 µM (≈ 4.22 µg/mL); in assay [4], 8 µM (≈ 16.9 µg/mL); in assay [36] it was 2 µM (≈ 4.22 µg/mL). Also, the minimal inhibitory concentration (MIC) in the assay on Pseudomonas aeruginosa was 4 µM (≈ 8.43 µg/mL); in the assay on Bacillus megaterium Bm11, 2 µM (≈ 4.22 µg/mL); in assay [37], 3 µM (≈ 6.32 µg/mL); with Candida albicans, more than 4 µM; in the assay with Klebsiella pneumoniae, 2 µM (≈ 4.22 µg/mL); in the assay on Citrobacter freundii, 2 µM (≈ 4.22 µg/mL). The MIC in the assay with Escherichia coli ML-35 worked out at 2 µM (≈ 4.22 µg/mL); in assay [38], 8 µM (≈ 16.9 µg/mL); against Enterococcus faecium, 2 µM (≈ 4.22 µg/mL); in [39] it was 1.5 µM (≈ 3.16 µg/mL); in assay [40], 2 µM (≈ 4.22 µg/mL); against Micrococcus luteus, 0.5 µM (≈ 1.05 µg/mL). This compound gave an MIC against Staphylococcus aureus of 2 µM (≈ 4.22 µg/mL).

(Values after DBAASP.)
